Reference: ChEMBL document CHEMBL1148293 (J Med Chem, 2004)

Key:
Mu-type opioid receptor = Mu-type opioid receptor (Cavia porcellus, UniProt P97266); test: Binding affinity against opioid receptor mu 1 using [3H]DAMGO as radioligand in guinea pig brain membranes.; assay type: cell membranes
[1] = target: Kappa-type opioid receptor (Cavia porcellus, UniProt P41144); test: Binding affinity against opioid receptor kappa 1 using [3H]-U-69,593 as radioligand in guinea pig brain membranes.; assay type: cell membranes
[2] = target: Opioid receptors; delta & kappa (UniProt P41145+P41143); test: Selectivity ratio expressed as Ki of delta opioid receptor to that of kappa opioid receptor.; assay type: protein assay; details: Cavia porcellus
[3] = system: Opioid receptors; mu & delta; test: Selectivity ratio expressed as Ki of delta opioid receptor to that of mu opioid receptor.; assay type: protein assay; details: Cavia porcellus

Sequence of Mu-type opioid receptor (P97266 whole entry): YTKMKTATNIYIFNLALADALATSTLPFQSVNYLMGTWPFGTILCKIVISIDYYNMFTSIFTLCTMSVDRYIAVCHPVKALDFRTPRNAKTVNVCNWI
Sequence of Opioid receptors; delta & kappa (P41143 whole entry, looked up): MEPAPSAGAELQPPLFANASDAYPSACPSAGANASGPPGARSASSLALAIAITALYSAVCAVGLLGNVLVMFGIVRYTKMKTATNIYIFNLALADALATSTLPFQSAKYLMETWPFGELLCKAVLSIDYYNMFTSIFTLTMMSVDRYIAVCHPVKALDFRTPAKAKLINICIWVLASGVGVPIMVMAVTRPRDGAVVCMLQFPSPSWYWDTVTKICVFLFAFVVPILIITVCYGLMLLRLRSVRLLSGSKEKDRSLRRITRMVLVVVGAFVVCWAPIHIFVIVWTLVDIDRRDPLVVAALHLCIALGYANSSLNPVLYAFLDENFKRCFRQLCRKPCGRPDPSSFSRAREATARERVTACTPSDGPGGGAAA
Sequence of Opioid receptors; delta & kappa (P41145 whole entry, looked up): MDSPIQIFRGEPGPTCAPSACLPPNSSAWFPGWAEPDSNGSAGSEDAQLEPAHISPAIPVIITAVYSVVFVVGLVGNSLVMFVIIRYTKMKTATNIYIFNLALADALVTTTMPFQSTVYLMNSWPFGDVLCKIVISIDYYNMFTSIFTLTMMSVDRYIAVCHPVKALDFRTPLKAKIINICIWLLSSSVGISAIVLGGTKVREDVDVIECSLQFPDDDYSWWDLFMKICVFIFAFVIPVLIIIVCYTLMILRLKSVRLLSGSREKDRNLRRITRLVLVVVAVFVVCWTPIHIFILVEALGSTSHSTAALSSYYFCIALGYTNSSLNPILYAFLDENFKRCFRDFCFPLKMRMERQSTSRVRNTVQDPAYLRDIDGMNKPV
Sequence of Kappa-type opioid receptor (P41144 whole entry): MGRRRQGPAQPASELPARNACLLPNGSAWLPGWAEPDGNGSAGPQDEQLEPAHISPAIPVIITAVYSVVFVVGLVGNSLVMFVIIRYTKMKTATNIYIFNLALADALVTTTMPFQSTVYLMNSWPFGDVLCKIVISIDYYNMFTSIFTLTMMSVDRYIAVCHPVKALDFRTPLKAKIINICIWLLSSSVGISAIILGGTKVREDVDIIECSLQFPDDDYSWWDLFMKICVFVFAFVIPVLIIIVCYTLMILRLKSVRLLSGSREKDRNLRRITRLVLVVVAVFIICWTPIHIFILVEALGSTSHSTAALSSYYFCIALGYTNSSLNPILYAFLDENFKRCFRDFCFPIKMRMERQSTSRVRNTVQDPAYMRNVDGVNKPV

SMILES | Ki (Mu-type opioid receptor) [nM] | Ki [1] [nM] | Selectivity [2] | Selectivity [3]
Nc1ccc2c(c1)[C@@]13CCCC[C@H]1[C@@H](C2)N(CC1CC1)CC3 | 1.3 | 0.18 | 830 | 120
O=C1c2ccc(-c3nnn[nH]3)cc2[C@@]23CCCC[C@H]2[C@@H]1N(CC1CCC1)CC3 | 230 | 360 |  | 
O=C1c2ccc(-c3nn[nH]n3)cc2[C@@]23CCCC[C@H]2[C@@H]1N(CC1CCC1)CC3 |  |  | 5 | 7.8
Nc1ccc2c(c1)[C@@]13CCCC[C@H]1[C@@H](C2)N(CC1CCC1)CC3 | 3.7 | 1.8 | 100 | 49
CN1CC[C@]23CCCC[C@H]2[C@H]1Cc1ccc(N)cc13 | 7.9 | 110 | 14 | 190
Oc1ccc2c(c1)[C@@]13CCCC[C@H]1[C@@H](C2)N(CC1CCC1)CC3 [BUTORPHAN] |  | 0.079 | 75 | 26
O=C(O)c1ccc2c(c1)[C@@]13CCCC[C@H]1[C@@H](C2=O)N(CC1CCC1)CC3 | 28 | 59 | 14 | 29
NC(=O)c1ccc2c(c1)[C@@]13CCCC[C@H]1[C@@H](C2=O)N(CC1CCC1)CC3 | 2.5 | 2.7 | 19 | 20
N#Cc1ccc2c(c1)[C@@]13CCCC[C@H]1[C@@H](C2=O)N(CC1CCC1)CC3 |  | 400 |  | 
CN1CC[C@]23CCCC[C@H]2[C@H]1Cc1ccc(O)cc13 |  |  | 1.8 | 20
NC(=O)c1ccc2c(c1)[C@@]13CCCC[C@H]1[C@@H](C2)N(CC1CC1)CC3 | 0.059 | 0.18 | 5.6 | 17
c1cc2c(cc1-c1nn[nH]n1)[C@@]13CCCC[C@H]1[C@@H](C2)N(CC1CCC1)CC3 |  |  | > 12 | > 9
O=C1c2ccc(O)cc2[C@@]23CCCC[C@H]2[C@@H]1N(CC1CCC1)CC3 | 3.3 | 0.48 | 540 | 79
CN1CC[C@]23CCCC[C@H]2[C@H]1Cc1ccc(-c2nnn[nH]2)cc13 | 380 | 380 |  | 
C#CCOc1ccc2c(c1)[C@@]13CCCC[C@H]1[C@@H](C2=O)N(CC#C)CC3 | 710 | 500 | > 20 | > 14
O=C1c2ccc(O)cc2[C@@]23CCCC[C@H]2[C@@H]1N(CCCF)CC3 | 20 | 2.5 |  | 
CN1CC[C@]23CCCC[C@H]2[C@H]1Cc1ccc(-c2nn[nH]n2)cc13 |  |  | > 26 | > 26
Nc1ccc2c(c1)[C@@]13CCCC[C@H]1[C@@H](C2=O)N(CC1CCC1)CC3 | 23 | 4.7 | 130 | 26
O=C1c2ccc(OCC3CCC3)cc2[C@@]23CCCC[C@H]2[C@@H]1N(CC1CCC1)CC3 | 800 | 290 | 35 | > 12

SMILES | Ki (Mu-type opioid receptor) [nM] | Ki [1] [nM] | Selectivity [2] | Selectivity [3]
O=C1c2ccc(O)cc2[C@@]23CCCC[C@H]2[C@@H]1N(CC1CC1)CC3 | 240 | 24 | 6 | 0.6
CN1CC[C@]23CCCC[C@H]2[C@H]1Cc1ccc(C#N)cc13 | 20 | 200 | > 5 | > 500
O=C1c2ccc(O)cc2[C@@]23CCCC[C@H]2[C@@H]1NCC3 | 20 | 25 | > 400 | > 500
O=C(Nc1ccc2c(c1)[C@@]13CCCC[C@H]1[C@@H](C2=O)N(CC1CCC1)CC3)c1ccccc1 | 4.4 | 7.7 | 49 | 86
C#CCN1CC[C@]23CCCC[C@H]2[C@H]1C(=O)c1ccc(O)cc13 | 190 | 60 | 38 | 12
COc1ccc2c(c1)[C@@]13CCCC[C@H]1[C@H](NCC3)C2=O | 110 | 390 | 0.04 | 0.14
CN1CC[C@]23CCCC[C@H]2[C@H]1Cc1ccc(C(N)=O)cc13 | 0.073 | 3.9 | 3.3 | 180
c1cc2c(cc1-c1nnn[nH]1)[C@@]13CCCC[C@H]1[C@@H](C2)N(CC1CCC1)CC3 | 1100 | 850 |  | 
O=C1c2ccc(O)cc2[C@@]23CCCC[C@H]2[C@@H]1N(CCF)CC3 | 560 | 250 | > 40 | > 18
CC(C)=CCN1CC[C@]23CCCC[C@H]2[C@H]1C(=O)c1ccc(O)cc13 | 19 | 7.4 | 150 | 58
NC(=O)c1ccc2c(c1)[C@@]13CCCC[C@H]1[C@@H](C2)N(CC1CCC1)CC3 |  | 0.087 |  | 
NCc1ccc2c(c1)[C@@]13CCCC[C@H]1[C@@H](C2)N(CC1CCC1)CC3 | 8.5 | 8.6 | 48 | 48
CN1CC[C@]23CCCC[C@H]2[C@H]1C(=O)c1ccc(O)cc13 | 21 | 47 | 26 | 57
N#Cc1ccc2c(c1)[C@@]13CCCC[C@H]1[C@@H](C2)N(CC1CCC1)CC3 | 37 | 6 | 320 | 51
O=C1c2ccc(O)cc2[C@@]23CCCC[C@H]2[C@@H]1N(C[C@@H]1CCCO1)CC3 | 0.38 | 0.18 | 5.6 | 2.6
O=C1c2ccc(O)cc2[C@@]23CCCC[C@H]2[C@@H]1N(Cc1ccc2ccccc2c1)CC3 | 2200 | 780 | > 13 | > 4.5
CN1CC[C@]23CCCC[C@H]2[C@H]1Cc1ccc(CN)cc13 | 66 | 120 | > 21 | > 38
O=C1c2ccc(O)cc2[C@@]23CCCC[C@H]2[C@@H]1N(CCc1ccccc1)CC3 | 0.63 | 7.7 | 1.3 | 15
